Like-named read-outs stand apart in the source and are kept apart here.
What was measured:
S. aureus RN450 = assay: In Vitro Anti-Bacterial Activity Assay (MIC), gram positive; assay type: cell-based; settings: Staphylococcus aureus, RN450, 18 h
E. coli mL308 225 = assay: In Vitro Anti-Bacterial Activity Assay (MIC), gram negative; assay type: cell-based; settings: Escherichia coli, ML308225, 18 h
[1] = gram positive bacteria, read-out: Antibiotic Activity Gram + (MIC)
[2] = gram negative bacteria, read-out: Antibiotic Activity Gram − (MIC)
[3] = MIC class, Table 3 (Continued), read-out: Gram+ activity
[4] = MIC class, Table 3 (Continued), read-out: Gram− activity
[5] = MIC class, Table 3, read-out: Antibiotic Activity Gram +
[6] = MIC class, Table 3, read-out: Antibiotic Activity Gram −

SMILES | MIC (S. aureus RN450; [1]) [µg/mL] | MIC (E. coli mL308 225; [2]) [µg/mL] | MIC (S. aureus RN450; [5]) [µg/mL] | MIC (E. coli mL308 225; [6]) [µg/mL] | further results
CN(C)c1cc(CNC(=O)C2CCCN2)c(O)c2c1C[C@H]1C[C@H]3[C@H](N(C)C)C(O)=C(C(N)=O)C(=O)[C@@]3(O)C(O)=C1C2=O (stereo partly drawn) | > 4 | > 4 | – | – | –
CC(CC(F)(F)F)N(C)Cc1cc(N(C)C)c2c(c1O)C(=O)C1=C(O)[C@]3(O)C(=O)C(C(N)=O)=C(O)[C@@H](N(C)C)[C@@H]3C[C@@H]1C2 (stereo partly drawn) | < 4 | < 4 | – | – | –
CN(C)[C@@H]1C(O)=C(C(N)=O)C(=O)[C@@]2(O)C(O)=C3C(=O)c4c(O)ccc(-c5cccc([N+](=O)[O-])c5)c4C[C@H]3C[C@@H]12 | – | – | – | – | MIC (S. aureus RN450; [3]): < 4 µg/mL; MIC (E. coli mL308 225; [4]): < 4 µg/mL
CCONC(C)c1ccc(O)c2c1C[C@H]1C[C@H]3[C@H](N(C)C)C(O)=C(C(N)=O)C(=O)[C@@]3(O)C(O)=C1C2=O (stereo partly drawn) | < 4 | < 4 | – | – | –
C[C@H]1c2ccc(NC3CCN(C)CC3)c(O)c2C(=O)C2=C(O)[C@]3(O)C(=O)C(C(N)=O)=C(O)[C@@H](N(C)C)[C@@H]3[C@@H](O)[C@@H]21 [JF] | – | – | < 4 | < 4 | –
CN(C)c1cc(-c2ccc(F)cc2F)c(O)c2c1C[C@H]1C[C@H]3[C@H](N(C)C)C(O)=C(C(N)=O)C(=O)[C@@]3(O)C(O)=C1C2=O | – | – | – | – | MIC (S. aureus RN450; [3]): < 4 µg/mL; MIC (E. coli mL308 225; [4]): < 4 µg/mL
CCOP(=O)(OCC)C(Nc1cc(N(C)C)c2c(c1O)C(=O)C1=C(O)[C@]3(O)C(=O)C(C(N)=O)=C(O)[C@@H](N(C)C)[C@@H]3C[C@@H]1C2)c1ccccc1 (stereo partly drawn) [AA] | – | – | – | – | MIC (S. aureus RN450; read-out: Antibiotic Activity Gram +): > 4 µg/mL; MIC (E. coli mL308 225; read-out: Antibiotic Activity Gram −): > 4 µg/mL
COC(=O)c1ccc2c(c1O)C(=O)C1=C(O)[C@]3(O)C(=O)C(C(N)=O)=C(O)[C@@H](N(C)C)[C@@H]3[C@@H](O)[C@@H]1[C@H]2C | > 4 | > 4 | – | – | –
CN(C)[C@@H]1C(O)=C(C(N)=O)C(=O)[C@@]2(O)C(O)=C3C(=O)c4c(O)ccc(CCC(=O)N5CCOCC5)c4C[C@H]3C[C@@H]12 | < 4 | > 4 | – | – | –
CN(Cc1cc(N(C)C)c2c(c1O)C(=O)C1=C(O)[C@]3(O)C(=O)C(C(N)=O)=C(O)[C@@H](N(C)C)[C@@H]3C[C@@H]1C2)CC(C)(C)C | < 4 | < 4 | – | – | –
CC(C)Cc1ccc(O)c2c1C[C@H]1C[C@H]3[C@H](N(C)C)C(O)=C(C(N)=O)C(=O)[C@@]3(O)C(O)=C1C2=O | < 4 | < 4 | – | – | –
CN(C)c1cc(NC(=O)Nc2ccc(OC(F)(F)F)cc2)c(O)c2c1C[C@H]1C[C@H]3[C@H](N(C)C)C(O)=C(C(N)=O)C(=O)[C@@]3(O)C(O)=C1C2=O [CG] | – | – | < 4 | > 4 | –
CN(C)c1ccc(O)c2c1C[C@H]1C[C@H]3[C@H](N(C)C)C(O)=C(C#N)C(=O)[C@@]3(O)C(O)=C1C2=O | > 4 | > 4 | – | – | –
CC(NNC(N)=O)c1ccc(O)c2c1C[C@H]1C[C@H]3[C@H](N(C)C)C(O)=C(C(N)=O)C(=O)[C@@]3(O)C(O)=C1C2=O (stereo partly drawn) | < 4 | > 4 | – | – | –
CN(C)C(=O)/C=C/c1ccc(O)c2c1C[C@H]1C[C@H]3[C@H](N(C)C)C(O)=C(C(N)=O)C(=O)[C@@]3(O)C(O)=C1C2=O [AQ] | – | – | < 4 | < 4 | –
CN(C)[C@@H]1C(O)=C(C(N)=O)C(=O)[C@@]2(O)C(O)=C3C(=O)c4c(O)cccc4C(CSCc4ccccc4)[C@H]3[C@H](O)[C@@H]12 (stereo partly drawn) | – | – | – | – | MIC (S. aureus RN450; [3]): < 4 µg/mL; MIC (E. coli mL308 225; [4]): < 4 µg/mL
CN(C)c1cc(NC(=S)Nc2cc(C(F)(F)F)cc(C(F)(F)F)c2)c(O)c2c1C[C@H]1C[C@H]3[C@H](N(C)C)C(O)=C(C(N)=O)C(=O)[C@@]3(O)C(O)=C1C2=O [CI] | – | – | < 4 | > 4 | –
CN(C)[C@@H]1C(O)=C(C(N)=O)C(=O)[C@@]2(O)C(O)=C3C(=O)c4c(O)ccc(CNC(=O)c5ccccn5)c4C[C@H]3C[C@@H]12 | < 4 | > 4 | – | – | –
CN(C)[C@@H]1C(OCc2ccccc2)=C(C(N)=O)C(=O)[C@@]2(O)C(O)=C3C(=O)c4c(O)cccc4C[C@H]3C[C@@H]12 | > 4 | > 4 | – | – | –
CN(C)c1cc(CNC2C[C@H]3CC[C@@H]2C3)c(O)c2c1C[C@H]1C[C@H]3[C@H](N(C)C)C(O)=C(C(N)=O)C(=O)[C@@]3(O)C(O)=C1C2=O (stereo partly drawn) | < 4 | < 4 | – | – | –
CN1CCCC1=Nc1ccc(-c2ccc(O)c3c2C[C@H]2C[C@H]4[C@@H](N(C)C)C(O)=C(C(N)=O)C(=O)[C@@]4(O)C(O)=C2C3=O)cc1 [GP] | – | – | < 4 | > 4 | –
CN(C)Cc1ccc(-c2ccc(O)c3c2C[C@H]2C[C@H]4[C@H](N(C)C)C(O)=C(C(N)=O)C(=O)[C@@]4(O)C(O)=C2C3=O)o1 [HL] | – | – | < 4 | < 4 | –
CN(C)[C@@H]1C(OCc2ccccc2)=C(C(N)=O)C(=O)[C@@]2(O)C(O)=C3C(=O)c4c(cccc4OCc4ccccc4)C[C@H]3C[C@@H]12 [OJ] | – | – | > 4 | > 4 | –

SMILES | MIC (S. aureus RN450; [1]) [µg/mL] | MIC (E. coli mL308 225; [2]) [µg/mL] | MIC (S. aureus RN450; [5]) [µg/mL] | MIC (E. coli mL308 225; [6]) [µg/mL] | further results
NC(=O)C1=C(O)C[C@@H]2C[C@@H]3Cc4ccc(CN5CCCCC5)c(O)c4C(=O)C3=C(O)[C@]2(O)C1=O | > 4 | > 4 | – | – | –
COc1cccc(CNCc2cc(N(C)C)c3c(c2O)C(=O)C2=C(O)[C@]4(O)C(=O)C(C(N)=O)=C(O)[C@@H](N(C)C)[C@@H]4C[C@@H]2C3)c1 | < 4 | > 4 | – | – | –
CN(C)[C@@H]1C(O)=C(C(N)=O)C(=O)[C@@]2(O)C(O)=C3C(=O)c4c(O)c(CS(C)(=O)=O)cc(-c5ccccn5)c4C[C@H]3C[C@@H]12 | < 4 | > 4 | – | – | –
COc1ccc(-c2ccc3c(c2O)C(=O)C2=C(O)[C@]4(O)C(=O)C(C(N)=O)=C(O)[C@@H](N(C)C)[C@@H]4[C@@H](O)[C@@H]2C3C)cc1 (stereo partly drawn) | – | – | – | – | MIC (S. aureus RN450; [3]): < 4 µg/mL; MIC (E. coli mL308 225; [4]): < 4 µg/mL
CN(C)CCNC(=O)c1cccc(-c2ccc(O)c3c2C[C@H]2C[C@H]4[C@H](N(C)C)C(O)=C(C(N)=O)C(=O)[C@@]4(O)C(O)=C2C3=O)c1 | < 4 | > 4 | – | – | –
CN(C)c1cc(CNC(=O)C(Cc2ccccc2)N(C)C)c(O)c2c1C[C@H]1C[C@H]3[C@H](N(C)C)C(O)=C(C(N)=O)C(=O)[C@@]3(O)C(O)=C1C2=O (stereo partly drawn) | < 4 | > 4 | – | – | –
CN(C)c1cc(C#Cc2ccc(F)cc2)c(O)c2c1C[C@H]1C[C@H]3[C@H](N(C)C)C(O)=C(C(N)=O)C(=O)[C@@]3(O)C(O)=C1C2=O | – | – | – | – | MIC (S. aureus RN450; [3]): < 4 µg/mL; MIC (E. coli mL308 225; [4]): < 4 µg/mL
CN(C)[C@@H]1C(O)=C(C(N)=O)C(=O)[C@@]2(O)C(O)=C3C(=O)c4c(O)ccc(CNCc5ccccc5)c4C[C@H]3C[C@@H]12 | < 4 | < 4 | – | – | –
CN(C)[C@@H]1C(O)=C(C(N)=O)C(=O)[C@@]2(O)C(O)=C3C(=O)c4c(O)ccc(-c5ccc(F)cc5F)c4C[C@H]3C[C@@H]12 [AB] | – | – | < 4 | > 4 | –
CO/N=C(/C)c1cc(C(C)(C)C)c(O)c2c1C[C@H]1C[C@H]3[C@H](N(C)C)C(O)=C(C(N)=O)C(=O)[C@@]3(O)C(O)=C1C2=O [IC] | – | – | < 4 | > 4 | –
CCOC(=O)Nc1cc(N(C)C)c2c(c1O)C(=O)C1=C(O)[C@]3(O)C(=O)C(C(N)=O)=C(O)[C@@H](N(C)C)[C@@H]3C[C@@H]1C2 [drawing 3362] | < 4 | < 4 | – | – | –
CCN(CC)c1ccc(O)c2c1C[C@H]1C[C@H]3[C@H](N(C)C)C(O)=C(C(N)=O)C(=O)[C@@]3(O)C(O)=C1C2=O | < 4 | < 4 | – | – | –
C[C@H]1c2c(-c3ccc4c(c3)OCO4)cc(-c3cccc4c3OCO4)c(O)c2C(=O)C2=C(O)[C@]3(O)C(=O)C(C(N)=O)=C(O)[C@@H](N(C)C)[C@@H]3[C@@H](O)[C@@H]21 [HF] | – | – | < 4 | > 4 | –
CN(C)c1cc(NCc2ccc([N+](=O)[O-])cc2)c(O)c2c1C[C@H]1C[C@H]3[C@H](N(C)C)C(O)=C(C(N)=O)C(=O)[C@@]3(O)C(O)=C1C2=O | < 4 | > 4 | – | – | –
CN(C)[C@@H]1C(O)=C(C(N)=O)C(=O)[C@@]2(O)C(O)=C3C(=O)c4c(O)ccc(-c5ccc(F)c(C=O)c5)c4C[C@H]3C[C@@H]12 | < 4 | < 4 | – | – | –
CN(C)[C@@H]1C(O)=C(C(N)=O)C(=O)[C@@]2(O)C(O)=C3C(=O)c4c(ccc(NC5CCNCC5)c4O)C[C@H]3C[C@@H]12 [LE] | – | – | > 4 | > 4 | –
COc1ccc(CN(C)C)cc1-c1ccc(O)c2c1C[C@H]1C[C@H]3[C@H](N(C)C)C(O)=C(C(N)=O)C(=O)[C@@]3(O)C(O)=C1C2=O [CJ] | – | – | < 4 | < 4 | –
CCc1cc(CN2CCC(F)(F)CC2)c(O)c2c1C[C@H]1C[C@H]3[C@H](N(C)C)C(O)=C(C(N)=O)C(=O)[C@@]3(O)C(O)=C1C2=O [drawing 3695] | < 4 | < 4 | – | – | –
CCOc1ccccc1-c1ccc(O)c2c1C[C@H]1C[C@H]3[C@H](N(C)C)C(O)=C(C(N)=O)C(=O)[C@@]3(O)C(O)=C1C2=O [AG] | – | – | < 4 | > 4 | –
CCNc1ccc(-c2ccc(O)c3c2C[C@H]2C[C@H]4[C@H](N(C)C)C(O)=C(C(N)=O)C(=O)[C@@]4(O)C(O)=C2C3=O)cc1 | – | – | – | – | MIC (S. aureus RN450; [3]): < 4 µg/mL; MIC (E. coli mL308 225; [4]): < 4 µg/mL
COCc1cccc(-c2ccc(O)c3c2C[C@H]2C[C@H]4[C@H](N(C)C)C(O)=C(C(N)=O)C(=O)[C@@]4(O)C(O)=C2C3=O)c1 | < 4 | < 4 | – | – | –
CN(C)[C@@H]1C(O)=C(C(N)=O)C(=O)[C@@]2(O)C(O)=C3C(=O)c4c(O)ccc(-c5ccc(C(=O)O)cc5)c4C[C@H]3C[C@@H]12 [BN] | – | – | < 4 | > 4 | –

Reference: patent publication US20150141381A1, “TETRACYCLINE COMPOUNDS HAVING TARGET THERAPEUTIC ACTIVITIES” (Paratek Pharmaceuticals, Inc., priority 2001, published 2015)
